Values of other authors as cited in patent US11311529B2, “Topical formulations of 5-α-reductase inhibitors and uses thereof” (Varsona Therapeutics, Inc., priority 2018, dated 2022).

Experiments:
DHT = conditions: 5 mg daily dose, oral, people suffering from BPH
men = conditions: oral, over a period of 12 to 24 weeks, compared with oral finasteride

For `C[C@]12C=CC(=O)N[C@@H]1CC[C@@H]1[C@@H]2CC[C@]2(C)[C@@H](C(=O)Nc3cc(C(F)(F)F)ccc3C(F)(F)F)CC[C@@H]12` [oral dutasteride, (5α,17β)-N-[2,5 bis(trifluoromethyl)phenyl]-3-oxo-4-azaandrost-1-ene-17-carboxamide], the DHT blocked (DHT) is listed as 98.4%+/−1.2 and the hair count results (men) is listed as “better hair count results than oral finasteride”.

For `CC(C)(C)NC(=O)[C@H]1CC[C@H]2[C@@H]3CC[C@H]4NC(=O)C=C[C@]4(C)[C@H]3CC[C@]12C` [oral finasteride, finasteride], the DHT blocked (DHT) is listed as 70.8+/−18.3%.
